In one assay the target is T1, Tec (Homo sapiens, UniProt P42680).
T1 sequence (P42680 1-631): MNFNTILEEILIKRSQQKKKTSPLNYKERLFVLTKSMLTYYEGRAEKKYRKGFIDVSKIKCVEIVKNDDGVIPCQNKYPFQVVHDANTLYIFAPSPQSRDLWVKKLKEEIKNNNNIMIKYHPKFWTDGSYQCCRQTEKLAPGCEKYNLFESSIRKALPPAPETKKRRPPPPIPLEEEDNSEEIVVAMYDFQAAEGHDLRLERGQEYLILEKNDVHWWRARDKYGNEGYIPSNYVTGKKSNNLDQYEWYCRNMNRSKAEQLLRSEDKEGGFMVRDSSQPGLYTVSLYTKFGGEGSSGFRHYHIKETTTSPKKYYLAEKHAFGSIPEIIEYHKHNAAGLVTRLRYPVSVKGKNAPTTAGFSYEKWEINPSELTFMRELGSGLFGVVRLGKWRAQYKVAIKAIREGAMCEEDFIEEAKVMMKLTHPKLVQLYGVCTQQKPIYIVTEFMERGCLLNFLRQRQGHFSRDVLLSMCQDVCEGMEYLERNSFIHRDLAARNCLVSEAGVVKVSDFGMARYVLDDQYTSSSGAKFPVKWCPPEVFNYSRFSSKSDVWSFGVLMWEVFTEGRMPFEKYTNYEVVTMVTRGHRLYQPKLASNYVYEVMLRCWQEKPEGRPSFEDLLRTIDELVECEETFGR
The experiment in a line: Biochemical kinase selectivity: IC50 determination of Tec. To be noted: TR-FRET, 280 μM ATP.
Compound `C=CC(=O)N1CCC(C2CCNc3c(C(N)=O)c(-c4ccccc4)nn32)CC1` (stereo not shown) [Example 144, reference compound] yielded a concentration for half-maximal inhibition (IC50) of 491 nM.
Same read-out and setting: to `C=CC(=O)N1CCC(C2CCNc3c(C(N)=O)c(-c4cc(OC)c(OC)c(OC)c4)nn32)CC1` (stereo not shown) [Example A14, 7-(1-acryloylpiperidin-4-yl)-2-(3,4,5-trimethoxyphenyl)-4,5,6,7-tetrahydropyrazolo[1,5-a]pyrimidine-3-carboxamide] belongs > 1000 nM.
The same measure, in the same setting: the same measure for `C=CC(=O)N1CCC(C2CCNc3c(C(N)=O)c(-c4cc(OC)c(C=C)c(OC)c4)nn32)CC1` (stereo not shown) [Example A51, 7-(1-acryloylpiperidin-4-yl)-2-(3,5-dimethoxy-4-vinylphenyl)-4,5,6,7-tetrahydropyrazolo[1,5-a]pyrimidine-3-carboxamide]: 136 nM.

The assay is the same for the next values; noted with them: ratio of IC50 values.
Consider `C=CC(=O)N1CCC(C2CCNc3c(C(N)=O)c(-c4ccccc4)nn32)CC1` (stereo not shown) [Example 144, reference compound], for which the “Fold of Tec/Btk” value worked out at 3.5 fold.

The target in another assay is T2, Btk kinase (aa2-659, Carna Biosciences) (Homo sapiens, UniProt Q06187).
T2 construct: purchased Carna Biosciences
T2 sequence (Q06187 2-659): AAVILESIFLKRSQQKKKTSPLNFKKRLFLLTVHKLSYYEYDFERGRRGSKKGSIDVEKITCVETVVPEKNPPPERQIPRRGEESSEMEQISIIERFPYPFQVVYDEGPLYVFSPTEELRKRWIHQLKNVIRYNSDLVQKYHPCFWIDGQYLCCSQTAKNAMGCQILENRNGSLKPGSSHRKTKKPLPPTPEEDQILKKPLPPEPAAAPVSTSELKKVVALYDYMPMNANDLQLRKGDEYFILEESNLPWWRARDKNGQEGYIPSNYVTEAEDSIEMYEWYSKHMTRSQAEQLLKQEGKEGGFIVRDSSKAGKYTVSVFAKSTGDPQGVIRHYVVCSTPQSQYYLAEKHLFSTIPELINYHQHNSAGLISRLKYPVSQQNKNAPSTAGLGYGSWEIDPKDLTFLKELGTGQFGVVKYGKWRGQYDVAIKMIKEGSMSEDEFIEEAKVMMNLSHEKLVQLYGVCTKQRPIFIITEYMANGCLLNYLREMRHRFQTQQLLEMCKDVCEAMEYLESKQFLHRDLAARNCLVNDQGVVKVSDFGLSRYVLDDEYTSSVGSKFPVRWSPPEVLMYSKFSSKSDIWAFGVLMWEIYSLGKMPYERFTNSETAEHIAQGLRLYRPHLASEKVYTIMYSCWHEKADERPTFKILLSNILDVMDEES
The assay is described as follows: Btk kinase enzymatic assay (TR-FRET). Type of assay: biochemical. As to conditions: TR-FRET, 30 μM ATP, compound incubated with kinase 60 minutes.
In turn, `C=CC(=O)N1CCC(C2CCNc3c(C(N)=O)c(-c4cc(OC)cc(OC)c4)nn32)CC1` (stereo not shown) [Example A9, 7-(1-acryloylpiperidin-4-yl)-2-(3,5-dimethoxyphenyl)-4,5,6,7-tetrahydropyrazolo[1,5-a]pyrimidine-3-carboxamide] displayed a concentration for half-maximal inhibition (IC50) of 41 nM.
The compound `C=CC(=O)N1CCC(C2CCNc3c(C(N)=O)c(-c4cc(OC)c(-c5ccccc5)c(OC)c4)nn32)CC1` (stereo not shown) [Example A10, 7-(1-acryloylpiperidin-4-yl)-2-(2,6-dimethoxy-[1,1′-biphenyl]-4-yl)-4,5,6,7-tetrahydropyrazolo[1,5-a]pyrimidine-3-carboxamide] came in with an IC50 of 51 nM. The IC50 values of the last two compounds are within 1.5-fold of each other.
Same read-out and setting: the same measure for `C=CC(=O)N1CCC(C2CCNc3c(C(N)=O)c(-c4cc(OCC)c(C)c(OCC)c4)nn32)CC1` (stereo not shown) [Example A13, 7-(1-acryloylpiperidin-4-yl)-2-(3,5-diethoxy-4-methylphenyl)-4,5,6,7-tetrahydropyrazolo[1,5-a]pyrimidine-3-carboxamide]: > 100 nM.
Still for that read-out and setting: to `C=CC(=O)N1CCC(C2CCNc3c(C(N)=O)c(-c4cc(Cl)c(C5CC5)c(Cl)c4)nn32)CC1` (stereo not shown) [Example A24, 7-(1-acryloylpiperidin-4-yl)-2-(3,5-dichloro-4-cyclopropylphenyl)-4,5,6,7-tetrahydropyrazolo[1,5-a]pyrimidine-3-carboxamide] belongs 28 nM; to `C=CC(=O)N1CCC(C2CCNc3c(C(N)=O)c(-c4cc(Cl)c(Br)c(OC(F)(F)F)c4)nn32)CC1` (stereo not shown) [Example A26, 7-(1-acryloylpiperidin-4-yl)-2-(4-bromo-3-chloro-5-(trifluoromethoxy)phenyl)-4,5,6,7-tetrahydropyrazolo[1,5-a]pyrimidine-3-carboxamide], 41 nM; to `C=CC(=O)N1CCC(C2CCNc3c(C(N)=O)c(-c4cc(OC)c(-c5c(C)noc5C)c(OC)c4)nn32)CC1` (stereo not shown) [Example A31, 7-(1-acryloylpiperidin-4-yl)-2-(4-(3,5-dimethylisoxazol-4-yl)-3-dimethoxyphenyl)-4,5,6,7-tetrahydropyrazolo[1,5-a]pyrimidine-3-carboxamide], > 100 nM.
`C=CC(=O)N1CCC(C2CCNc3c(C(N)=O)c(-c4cc(OC)c(C5CCOCC5)c(OC)c4)nn32)CC1` (stereo not shown) [Example A32, 7-(1-acryloylpiperidin-4-yl)-2-(3,5-dimethoxy-4-(tetrahydro-2H-pyran-4-yl)phenyl)-4,5,6,7-tetrahydropyrazolo[1,5-a]pyrimidine-3-carboxamide] came in with an IC50 of 52 nM.
In turn, `C=CC(=O)N1CCC(C2CCNc3c(C(N)=O)c(-c4cc(Cl)c(C5CC5)c(OCC)c4)nn32)CC1` (stereo not shown) [Example A48, 7-(1-acryloylpiperidin-4-yl)-2-(3-chloro-4-cyclopropyl-5-ethoxyphenyl)-4,5,6,7-tetrahydropyrazolo[1,5-a]pyrimidine-3-carboxamide] displayed an IC50 of 16 nM.
Turning to `C=CC(=O)N1CCC(C2CCNc3c(C(N)=O)c(-c4cc(Cl)c(C)c(OCC)c4)nn32)CC1` (stereo not shown) [Example A49, 7-(1-acryloylpiperidin-4-yl)-2-(3-chloro-5-ethoxy-4-methylphenyl)-4,5,6,7-tetrahydropyrazolo[1,5-a]pyrimidine-3-carboxamide], the IC50 amounted to 18 nM.

The values are drawn from patent publication US20220298163A1, “BTK INHIBITORS WITH IMPROVED DUAL SELECTIVITY” (BEIGENE, LTD., priority 2017, published 2022).
